{"source": "patent US4372949A", "about": "“Treatment of cancer with carcinostatic and immunostimulating agent containing lysophospholipid and phospholipid” (Toyama Chemical Co., Ltd., priority 1979, dated 1983)", "key": {"L-1210 leukemic cells": {"system": "L-1210 leukemic cells", "experiment": "Pre-administration effect to L-1210 (L-1210 allograft)", "format": "in vivo, mice (ddN strain)", "settings": "i.p., 7 days pre-administration", "method": "Each test compound was repeatedly administered (at a dose of 40 mg/kg as calculated in terms of L-lysolecithin) intraperitoneally to ddN strain mice (male, 6-week old) for a period of 7 days, and after one-week no-administration period, 1×10^6 L-1210 leukemic cells were inoculated intraperitoneally and the average number of survival days of the test animal was determined."}, "[1]": {"system": "Lewis lung cancerous cells", "experiment": "Inhibitory effect against metastasis of Lewis lung cancer", "format": "in vivo, mice (BDF1 strain)", "settings": "L-lysolecithin 40 mg/kg i.p., 10 days", "method": "1×10^6 Lewis lung cancerous cells were given intravenously to BDF1 strain (female, 13-week old) mice, and after 24 hours, L-lysolecithin (40 mg/kg) was administered intraperitoneally while a mixture of a fat emulsion (20 ml/kg) and L-lysolecithin (40 mg/kg) was administered intravenously, each for a period of 10 days repeatedly, and at the 11th day, the breast of each test mouse was cut open and the dry weight of the lung (mg mean ± S.E.) was measured. The inhibitory effect was judged by the ratio to the control group (T/C)."}, "mice": {"system": "mice", "experiment": "Acute toxicity", "format": "in vivo", "settings": "female, intravenous injection", "source_text": "The results of measurement of acute toxicity on some typical compounds prepared according to this invention are shown in Table 9.\n(Test animal: mice, female; intravenous injection)"}, "[2]": {"settings": "Table 5, 40 mg/kg L-lysolecithin (No. 7: + 20 ml/kg fat emulsion)"}}}
{"substance": "L-lysolecithin", "values": [{"measurement": "Average number of survival days", "setting": "L-1210 leukemic cells; Table 4, 40 mg/kg as L-lysolecithin", "value": "> 21.0", "unit": "days"}, {"measurement": "Number of survival days (mean ± S.E.)", "setting": "L-1210 leukemic cells; [2]", "value": 21.0, "unit": "days"}, {"measurement": "Number of survivor for 21 days/Number of mice tested", "setting": "L-1210 leukemic cells; [2]", "value": "6/6"}, {"measurement": "Dry lung weight (mean ± S.E.)", "setting": "[1]", "value": "34.3 ± 1.6", "unit": "mg"}, {"measurement": "Increased weight (mean ± S.E.)", "setting": "[1]", "value": "4.7 ± 1.6", "unit": "mg"}, {"measurement": "T/C", "setting": "[1]; ratio to control group", "value": 29.0, "unit": "%"}, {"measurement": "LD50", "setting": "mice", "value": 122, "unit": "mg/kg"}]}
